Biological target: T1, estrogen receptor alpha (ESR1) in MCF7 breast cancer cells (Homo sapiens, UniProt P03372)
T1 construct: endogenous in cells; host or cells: MCF7 breast cancer cells
T1 sequence (P03372 1-595): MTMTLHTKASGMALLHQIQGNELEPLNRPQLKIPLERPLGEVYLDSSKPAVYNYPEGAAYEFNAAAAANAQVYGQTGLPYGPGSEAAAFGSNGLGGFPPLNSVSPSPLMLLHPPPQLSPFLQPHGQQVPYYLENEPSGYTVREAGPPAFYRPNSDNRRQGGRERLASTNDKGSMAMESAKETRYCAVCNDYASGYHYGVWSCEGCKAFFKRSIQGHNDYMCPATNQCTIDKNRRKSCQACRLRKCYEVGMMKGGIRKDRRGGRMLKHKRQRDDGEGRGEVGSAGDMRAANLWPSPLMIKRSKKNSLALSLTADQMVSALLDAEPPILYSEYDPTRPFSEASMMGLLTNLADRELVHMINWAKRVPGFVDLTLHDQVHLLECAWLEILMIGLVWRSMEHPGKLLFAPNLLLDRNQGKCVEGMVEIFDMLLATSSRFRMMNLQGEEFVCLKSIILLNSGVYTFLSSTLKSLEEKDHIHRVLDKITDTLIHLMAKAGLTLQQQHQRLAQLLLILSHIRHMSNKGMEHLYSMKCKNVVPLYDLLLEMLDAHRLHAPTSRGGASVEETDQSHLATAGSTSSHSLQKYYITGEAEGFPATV
Test: Breast Cancer Cell ERa High Content Fluorescence Imaging Assay (F10)
Type: cell-based
Conditions: 4 hours, plateau of the maximal effect, DMSO and 5 nM Fulvestrant define 0% and 100% changes in ESR1
Protocol: Breast Cancer Cell ERa High Content Fluorescence Imaging Assay (F10)
Cell plates were incubated at 37° C., for 4 hours. Fixation and permeabilization were carried out using a Biotek EL406 plate washer and dispenser as follows. […] Samples were incubated 30 minutes. Well contents was aspirated and 50 ul/well of Phosphate Buffered Saline (PBS) containing 0.5% w/v bovine serum albumen, 0.5% v/v Triton X-100 (Antibody Dilution Buffer) was added to each well. Samples were incubated for 30 minutes. Well contents were aspirated and washed 3 times with 100 ul/well of PBS. Immunofluorescence staining of estrogen receptor alpha (ESR1) was carried out using a Biotek EL406 plate washer and dispenser as follows. […] Samples were incubated for 2 hours at room temperature. Samples were washed 4 times with 100 ul/well of PBS. […] Samples were incubated for 2 hours at room temperature. Samples were washed 3 times with 100 ul/well of PBS using a Biotek EL406. Quantitative fluorescence imaging of ESR1 was carried out using a Cellomics Arrayscan V (Thermo). […] Channel 1 (DNA stain) was used to define the nuclear region (Circ). […] Data analysis was carried out using Genedata Screener Software, with DMSO and 5 nM Fulvestrant treated samples being used to define the 0% and 100% changes in ESR1. The “Robust Fit” method was used to define the inflexion point of curve (EC50) and the plateau of the maximal effect (Sinf).

SMILES | ER-alpha MCF7 HCS Sinf (%)
CC1=C(c2ccc(CO)cc2)C(c2ccc(OCCN3CC(CF)C3)cc2)Oc2ccc(O)cc21 (stereo not shown) [Example 16, 2-(4-(2-(3-(Fluoromethyl)azetidin-1-yl)ethoxy)phenyl)-3-(4-(hydroxymethyl)phenyl)-4-methyl-2H-chromen-6-ol] | −99%
CC1=C(c2cccc(Cl)c2)[C@@H](c2ccc(OCCN3CC(CF)C3)cc2)Oc2ccc(O)cc21 [Example 36, (R)-3-(3-chlorophenyl)-2-(4-(2-(3-(fluoromethyl)azetidin-1-yl)ethoxy)phenyl)-4-methyl-2H-chromen-6-ol] | −95%
CC(=O)Nc1ccc(C2=C(C)c3cc(O)ccc3OC2c2ccc(OCCN3CC(CF)C3)cc2)cc1 (stereo not shown) [Example 11, N-(4-(2-(4-(2-(3-(Fluoromethyl)azetidin-1-yl)ethoxy)phenyl)-6-hydroxy-4-methyl-2H-chromen-3-yl)phenyl)acetamide] | −93%
CC1=C(c2cccc(F)c2F)C(c2ccc(OCCN3CC(CF)C3)cc2)Oc2ccc(O)cc21 (stereo not shown) [Example 4, 3-(2,3-Difluorophenyl)-2-(4-(2-(3-(fluoromethyl)azetidin-1-yl)ethoxy)phenyl)-4-methyl-2H-chromen-6-ol] | −98%
CC1=C(c2ccc(S(C)(=O)=O)cc2)C(c2ccc(OCCN3CC(CF)C3)cc2)Oc2ccc(O)cc21 (stereo not shown) [Example 8, 2-(4-(2-(3-(fluoromethyl)azetidin-1-yl)ethoxy)phenyl)-4-methyl-3-(4-(methylsulfonyl)phenyl)-2H-chromen-6-ol] | −90%
C#Cc1cc(O)cc(C2=C(C)c3cc(O)ccc3OC2c2ccc(OC[C@H](C)N3CC[C@@H](CF)C3)cc2)c1 (stereo partly drawn) [Example 3, 3-(3-Ethynyl-5-hydroxyphenyl)-2-(4-((S)-2-((R)-3-(fluoromethyl)pyrrolidin-1-yl)propoxy)phenyl)-4-methyl-2H-chromen-6-ol] | −94%
CC1=C(c2ccc(F)cc2Cl)C(c2ccc(OCCN3CC(CF)C3)cc2)Oc2ccc(O)cc21 (stereo not shown) [Example 32, 3-(2-chloro-4-fluoro-phenyl)-2-[4-[2-[3-(fluoromethyl)azetidin-1-yl]ethoxy]phenyl]-4-methyl-2H-chromen-6-ol] | −99%

Reference: patent publication US20160175284A1, “ESTROGEN RECEPTOR MODULATORS AND USES THEREOF” (Genentech, Inc., priority 2014, published 2016)
